Measured values as given in PMC9181938, “Fluorinated Analogues of Lepidilines A and C: Synthesis and Screening of Their Anticancer and Antiviral Activity” (Molecules, 2022).
Like-named read-outs stand apart in the source and are kept apart here.

Experiments:
[1] = tested on: Human parainfluenza virus type 3 (HPIV-3); experiment: Antiviral activity assay (0.1–1000 µM), IC50; type: cell-based
Procedure, shortened: (§1)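 Confluent cell monolayers were infected (AdV5 and EMCV MOI 0.005, HPIV-3 MOI 0.01, 1-h adsorption; HCMV 20 PFU/well, 2-h adsorption), then incubated at 37 °C with compounds (0.1–1000 µM) in 2% FBS MEM until CPE appeared. Infection was read by MTT or, for HCMV, plaque counting. IC50 was the concentration halving plaques versus untreated infected controls.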

[2] = tested on: LLC-MK2 cells; experiment: Cytotoxicity MTT assay (0.1–1000 µM), CC50; type: cell-based, Macaca mulatta
[3] = tested on: HeLa cells; experiment: Cytotoxicity screening at 10 µM (MTT); type: cell-based, Human; settings: 48 h
[4] = tested on: NCTC clone 929 cells; experiment: Cytotoxicity screening at 10 µM (MTT); type: cell-based, Mus musculus; settings: 48 h
[5] = tested on: LLC-MK2 cells; experiment: Cytotoxicity screening at 10 µM (MTT); type: cell-based, Macaca mulatta; settings: 48 h
[6] = tested on: Vero cells; experiment: Cytotoxicity screening at 10 µM (MTT); type: cell-based, Cercopithecus aethiops; settings: 48 h
[7] = tested on: MRC-5 cells; experiment: Cytotoxicity screening at 10 µM (MTT); type: cell-based, Human; settings: 48 h
[8] = tested on: Human parainfluenza virus type 3 (HPIV-3); experiment: Antiviral screening at 10 µM; type: cell-based; settings: antiviral screening, HPIV-3-infected cells
Experimental: (§2) Antiviral properties of compounds 1a, 1c, 1a[PF6], 1c[PF6], 9b[PF6], 9c[PF6], 10a–10d, 2a, and 2b were assessed against five viruses: Human herpesvirus 1 (HSV-1, VR-539), Human parainfluenza virus type 3 (HPIV-3, VR-93), Human adenovirus 5 (AdV5, VR-5), Human herpesvirus 5 (HCMV, VR-977), and Encephalomyocarditis virus (EMCV, VR-1479). Viruses were purchased from the American Type Culture Collection (ATCC, Manassas, VA, USA).
(§3) All tested compounds were dissolved in DMSO (dimethyl sulfoxide, Sigma-Aldrich, Darmstadt, Germany) and then suspended in Minimum Essential Medium (MEM; Sigma-Aldrich, Darmstadt, Germany) supplemented with 2% heat-inactivated fetal bovine serum (FBS; Sigma-Aldrich, Darmstadt, Germany), 2 mM L-glutamine (Sigma-Aldrich, Darmstadt, Germany), and 100 units/mL penicillin G with […] streptomycin (Sigma-Aldrich, Darmstadt, Germany).
(§4) Vero, LLC-MK2, NCTC clone 929, MRC-5, and HeLa cells were propagated in Minimum Essential Medium (MEM; Sigma-Aldrich, Darmstadt, Germany) supplemented with 10% heat-inactivated fetal bovine serum (FBS; Sigma-Aldrich, Darmstadt, Germany) and 100 units/mL penicillin G with […] streptomycin (Sigma-Aldrich, Darmstadt, Germany). Upon reaching 80–90% confluency, cells were harvested with 0.25% trypsin in 1 mM EDTA (Life Technologies, Warsaw, Poland) and seeded onto 96-well microplates at 2 × 10^5 cells/mL. After overnight incubation of cells at 37 °C in a humidified atmosphere containing 5% CO2, the culture medium was removed, and cells were inoculated with the respective virus solution in MEM supplemented with 2% FBS and antibiotics (HSV-1 MOI 0.005, 1000 virions/mL; HPIV-3 MOI 0.01, 2000 virions/mL; AdV5 MOI 0.005, 1000 virions/mL, EMCV MOI 0.005, 1000 virions/mL, HCMV 20 PFU (plaque forming units) per well). After a 1-h (HSV-1, HPIV-3, AdV5, and EMCV) or 2-h adsorption period (HCMV), the residual virus was removed, and the infected cells were further incubated with a 100 μL freshly prepared solution of tested compounds diluted with a maintenance medium supplemented with 2% FBS to obtain compound concentrations of 10 µM. The final concentration of DMSO in the medium was 0.1%. All experiments were carried out in triplicate. The cells monolayers were incubated with the compounds at 37 °C in a humidified atmosphere containing 5% CO2 until the typical cytopathic effect (CPE) was visible. Viral infection was evaluated by the MTT assay or plaque reduction assay (HCMV). After incubation with drugs, the cells were treated with 3-(4,5-dimethylthiazol-2-yl)-2,5-diphenyltetrazolium bromide dye solution (MTT, Sigma-Aldrich, Darmstadt, Germany) (25 μL, 5 mg/mL) for 2 h and lysed with solvent solution (100 μL) containing: DMF (Sigma-Aldrich, Darmstadt, Germany) (45 mL), SDS (Sigma-Aldrich, Darmstadt, Germany) (13.5 g), and distilled water (55 mL). After overnight incubation at 37 °C, the optical density at 550 nm and a reference wavelength of 670 nm were measured on a microplate spectrophotometer, Varioskan Lux (Thermo Fisher Scientific, Waltham, MA, USA). The number of HCMV plaques was counted under an inverted microscope Olympus IX73 (Olympus, Tokyo, Japan).

[9] = tested on: Encephalomyocarditis virus (EMCV); experiment: Antiviral screening at 10 µM; type: cell-based; settings: EMCV-infected cells
Experimental: as §2, §3, §4

[10] = tested on: Human adenovirus 5 (AdV5); experiment: Antiviral screening at 10 µM; type: cell-based; settings: AdV5-infected cells
Experimental: as §2, §3, §4

[11] = tested on: Human herpesvirus 1 (HSV-1); experiment: Antiviral screening at 10 µM; type: cell-based; settings: antiviral screening, HSV-1-infected cells
Experimental: as §2, §3, §4

[12] = tested on: Encephalomyocarditis virus (EMCV); experiment: Antiviral activity assay (0.1–1000 µM), IC50; type: cell-based; settings: Cardiovirus A, MOI 0.005, read-out: IC50 EMCV
Procedure, shortened: as §1

[13] = tested on: Human adenovirus 5 (AdV5); experiment: Antiviral activity assay (0.1–1000 µM), IC50; type: cell-based; settings: Human mastadenovirus C; AdV5, MOI 0.005; read-out: IC50 AdV5
Procedure, shortened: as §1

[14] = tested on: Human herpesvirus 1 (HSV-1); experiment: Antiviral activity assay (0.1–1000 µM), IC50; type: cell-based; settings: Human alphaherpesvirus 1; HSV-1, MOI 0.005
[15] = Cytotoxicity MTT assay (0.1–1000 µM), CC50; type: cell-based, Mus musculus; settings: Mus musculus, NCTC clone 929 cells, NCTC clone 929, MTT, 48 h; read-out: CC50 Normal Cell Lines NCTC Clone 929
[16] = tested on: Human herpesvirus 5 (HCMV); experiment: Antiviral activity assay (0.1–1000 µM), IC50, plaque reduction; type: cell-based; settings: Human betaherpesvirus 5, 20 PFU/well
Procedure, shortened: as §1

[17] = tested on: MRC-5 cells; experiment: Cytotoxicity MTT assay (0.1–1000 µM), CC50; type: cell-based, Human; settings: MRC-5, MTT, 48 h; read-out: CC50 Normal Cell Lines MRC-5
[18] = Cytotoxicity MTT assay (0.1–1000 µM), CC50; type: cell-based, Human; settings: human, A549 cells, read-out: CC50 Cancer Cell Lines A549
[19] = Cytotoxicity MTT assay (0.1–1000 µM), CC50; type: cell-based, Human; settings: human, HepG2 cells, read-out: CC50 Cancer Cell Lines HepG2
[20] = tested on: Vero cells; experiment: Cytotoxicity MTT assay (0.1–1000 µM), CC50; type: cell-based, Cercopithecus aethiops; settings: 48 h
[21] = tested on: HeLa cells; experiment: Cytotoxicity MTT assay (0.1–1000 µM), CC50; type: cell-based, Human; settings: MTT, 48 h, read-out: CC50 Cancer Cell Lines HeLa
[22] = Cytotoxicity MTT assay (0.1–1000 µM), CC50; type: cell-based, Human; settings: human, MRC-5 cells, MRC-5, MTT, read-out: CC50 Normal Cell Lines MRC-5
[23] = Cytotoxicity MTT assay (0.1–1000 µM), CC50; type: cell-based, Macaca mulatta; settings: Macaca mulatta, LLC-MK2 cells, LLC-MK2, MTT, 48 h; read-out: CC50 Normal Cell Lines LLC-MK2
[24] = Cytotoxicity MTT assay (0.1–1000 µM), CC50; type: cell-based, Cercopithecus aethiops; settings: Cercopithecus aethiops, Vero cells, read-out: CC50 Normal Cell Lines Vero
[25] = Cytotoxicity MTT assay (0.1–1000 µM), CC50; type: cell-based, Human; settings: human, HeLa cells, MTT, 48 h, read-out: CC50 Cancer Cell Lines HeLa
[26] = LLC-MK2, MTT, 48 h, read-out: CC50 Normal Cell Lines LLC-MK2
[27] = Human respirovirus 3, HPIV-3, MOI 0.01, read-out: IC50 HPIV-3

SMILES | CC50 [2, 26] [µM] | IC50 [1, 27] [M] | IC50 [12] [µM] | IC50 [13] [µM] | IC50 [14] [µM] | CC50 at 48 h [15] [µM] | IC50 [16] [µM] | melting point [°C] | CC50 at 48 h [18] [µM] | CC50 at 48 h [19] [µM] | other results
COc1cccc(Cn2c[n+](Cc3ccccc3)c(C)c2C)c1 [1c[PF6]] | < 80 |  |  |  |  |  |  |  |  |  | IC50 ([1]; Table S4, range 0.1-1000 µM, HPIV-3, read-out: IC50 (M) HPIV-3): > 7.53e-05 M; CC50 ([2]; Table S2, range 0.1-1000 µM, LLC-MK2, read-out: Cell line (CC50 M) LLC-MK2): 75.3 ± 5.51 µM; Cell line (viability %) HeLa [3]: 11.4%; Cell line (viability %) NCTC clone 929 [4]: 8.5%; Cell line (viability %) LLC-MK2 [5]: 55.6%; Cell line (viability %) Vero [6]: 91.3%; Cell line (viability %) MRC-5 [7]: 76.9%; Cell line (viability %) HPIV-3 [8]: 91.1%; Cell line (viability %) EMCV [9]: 7.9%; Cell line (viability %) AdV5 [10]: 17.1%; Cell line (viability %) HSV-1 [11]: 23.3%
Cc1c(C)[n+](Cc2cccc(F)c2)cn1Cc1ccccc1.[Cl-] [Compound 1e, 1-Benzyl-3-(3-fluorobenzyl)-4,5-dimethylimidazolium chloride] | 53.5 ± 2.18 | > 5.35e-05 | > 79.2 | > 0.039 | > 22.7 | 79.2 ± 1.44 | > 52.7 | 190 to 192 | 37.7 ± 3.79 | 423 ± 7.64 | CC50 [17]: 52.7 ± 0.577 µM; CC50 ([20]; read-out: CC50 Normal Cell Lines Vero): 22.7 ± 1.53 µM; CC50 [21]: 0.039 ± 0.001 µM
Cc1c(C)[n+](Cc2cccc(C(F)(F)F)c2)cn1Cc1ccccc1.[Cl-] [Compound 1g, 1-Benzyl-4,5-dimethyl-3-[3-(trifluoromethyl)benzyl]imidazolium chloride] |  | > 6.62e-05 | > 30 | > 0.053 | > 0.107 | 30 ± 2 | > 54.3 | 120 to 122 | 10.3 ± 1.04 | 130 ± 5 | CC50 at 48 h [22]: 54.3 ± 1.16 µM; CC50 at 48 h [23]: 66.2 ± 2.25 µM; CC50 at 48 h [24]: 0.107 ± 0.012 µM; CC50 Normal Cell Lines Vero [20]: toxic; CC50 at 48 h [25]: 0.053 ± 0.006 µM
